Data on 20 compounds can be found in patent US20240197596A1, “COMPOUNDS USEFUL AS HAIR DYES” (National University of Singapore, priority 2021, published 2024).

SMILES strings stand for the structures. Converted amounts (≈) assume the structure as drawn.

Data set [1] concerns THP-1 cells. Description: MTT assay on THP-1 cells (CV75). The data set is classed as cell-based, human. The protocol:
THP-1 (human acute monocytic leukaemia cell line) cell suspension was adjusted to 1×10^5 cells per well and seeded in 96-well plates. The plate was incubated at 37° C. with 5% CO2. After 24 h, 10 mM stock solutions of N1-N13 were prepared in autoclaved milli-Q water. A series of concentrations diluted in media was prepared and added to the wells. Each concentration was performed in 6-replicates, and seeded wells with only media and no compound were used as controls while wells with only media were used as blanks. The plate was incubated for 24 h, after which 100 μL of MTT reagent was added and the plate was further incubated for 3 h before adding 100 μL of DMSO. Subsequently, the plate was shaken for 20 min, and then absorbance at 570 nm was determined using a Bio-Tek plate reader. Percentage cell viability was calculated and CV75 values were determined.

Data set [2] deals with CD54. The data set can be described thus: h-CLAT assay, CD54 expression by flow cytometry. It counts as cell-based, human. To be noted: for EC200 for CD54 (lowest concentration inducing % RFI of 200): THP-1 cells, 24 h; for RFI for CD54: at CV75, 24 h. The protocol: (§1) The assay was conducted as per the literature (Toxicol In Vitro, 2006, 20, 767-73). THP-1 cells were cultured in 24-well plates (1×10^6 cells/1 mL/well) with various concentrations of each chemical (N1-N13), +ve control (DNCB), −ve control for 24 h.
(§2) THP-1 cells were cultured in 24-well plates (1×10^6 cells/mL/well) and treated with recommended concentrations of each chemical (N1-N13), positive control (DNCB) or negative control (SLS) for 24 h. THP-1 cells were cultured and treated with 8 doses of N1-N13 based on the CV75 namely, 1.2×CV75, 1×CV75, 1/1.2×CV75, 1/1.2^2×CV75, 1/1.23×CV75, 1/1.24×CV75, 1/1.2^5×CV75 and 1/1.2^6×CV75. After 24 h, cells were transferred to 1.5 mL of microtubes and centrifuged at 450 g, 5 min, 4° C. Supernatant was discarded and cells were washed with 1 mL of FACS buffer (PBS+FBS+HEPES). The cells were centrifuged at 450 g, 5 min, 4° C. 50 μL of Fc block (0.01% of Globlins Cohn fraction II, III) was added and incubated for 10 min at 4° C. The cells were stained with 20 μL APC CD54 (Mouse IgG1, K, BD Biosciences, San Diego, CA, USA), 20 μL FITC CD86 (Mouse IgG1, K, BD Biosciences, San Diego, CA, USA) or their respective isotype controls and incubated for 15 min at room temperature in dark. After incubation, the antibodies were diluted with 200 μl FACS buffer. The cells were washed with 1 mL FACS buffer twice. Further, 200 μL Propidium iodide (PI, 0.625 μg/mL) prepared in FACS buffer was added before the flow cytometry analysis. Flow cytometric analysis was performed with BD LSR Fortessa™ (Becton Dickinson, San Jose, CA, USA) In total, 10,000 living cells were analysed, and data were processed using Flowjo software (v10.6, Ashland, OR, USA). The test concentration providing a cell viability of 75% (CV75) was derived from the dose response curve and was calculated by log-linear interpolation.
(§3) Geometric mean fluorescence intensity (MFI) was measured for CD54^+ and CD86^+ cells separately and percentage relative fluorescence intensity (% RFI), reflective of CD86 and CD54 relative expression was calculated as described below. RFI was not calculated if cell viability fell below 50%.
(§4) All chemicals were tested in three independent experiments. If in two of three independent experiments at any dose exceeded 150% RFI for CD86, or 200% RFI for CD54, the chemicals could be identified as a sensitizer. Otherwise it is identified as a non-sensitizer.

The test system of data set [3] is CD86. Description: h-CLAT assay, CD86 expression by flow cytometry. It counts as cell-based, human. Conditions: for EC150 for CD86 (lowest concentration inducing % RFI of 150): THP-1 cells, 24 h; for RFI for CD86: at CV75, 24 h. The protocol: as §1, §2, §3, §4
(In general: Flow cytometry measures light scatter and fluorescence of single cells or particles in a stream.)

The nature of data set [4]: Thermodynamic solubility assay (modified shake flask, LC-MS/MS). Conditions: for solubility at 24 h: 25 °C, pH 7, water, thermodynamic from solid. The protocol: The aqueous solubilities (pH=7) of these compounds were measured using the modified shake flask method and LC-MS/MS. Each hair dye was added into a 2 mL glass vial containing Milli-Q water (1 mL) to form the precipitates at 25° C. Then the mixture was subjected to a solubility-equilibrium stage. The vials were shaken at 300 rpm at 25° C. for 24 h. The precipitate was separated by centrifugation at 23,000 g for 20 min. Subsequently, 0.5 mL of supernatant was transferred into a 1 mL Eppendorf tube, and it was centrifuged again as mentioned above. The supernatant was then used for LC-MS/MS analysis.
The mass spectrometric analysis was performed by use of a AB SCIEX QTRAP 5500 tandem mass spectrometry (MS/MS) system (AB SCIEX, Framingham, MA, USA) operating in triple quadrupole positive mode (ESI+) equipped with an AB Sciex Turbo Ion Spray interface. Acquisition and analysis of data were performed with Analyst software ver. 1.4.2 (Applied Biosystems) which performed all chromatographic peak integration. For each hair dye, a standard curve consisting of four concentrations was established.
Solvent A was composed of 0.1% [v/v] formic acid in Milli-Q water while solvent B was composed of 0.1% [v/v] formic acid in acetonitrile. A mobile phase gradient pumped at 0.6 mL/min was used to elute the hair dyes from the column. The column was equilibrated for 1 min resulting in a total run time of 5 min. The injection volume was 5.0 μL for all derivatives. To prevent compound accumulation on the needle, 50% methanol in ACN was used as needle wash for 30 s per sample.

For data set [5], the system named is THP-1 cells. The data set can be described thus: h-CLAT assay on THP-1 cells: markers against OECD cut-off, prediction, cell viability. The data set is classed as cell-based, human. To be noted: for CD54 and CD86 marker expression against OECD cut-off: 8 doses based on CV75, 24 h. The protocol:
as §1, §2, §3, §4

For data set [6], the system named is HaCaT cells. To be noted: data from J Hazard Mat., 2021, 402, 123712; cited from earlier work.
For data set [7] the following is noted: data from J Hazard Mat., 2021, 402, 123712, cited from earlier work.
Data set [8] has as its system IL-8. To be noted: data from J Hazard Mat., 2021, 402, 123712 (FIG. 6); cited from earlier work.
Data set [9] concerns IL-1α. Conditions: data from J Hazard Mat., 2021, 402, 123712 (FIG. 6); cited from earlier work.
Setting [10] is: Milli-Q water, Water Solubility, library of old series (Table 4).
Where [11] appears, read: library of old series (Table 4).

In the case of `O=[N+]([O-])c1ccc(Cl)c([N+](=O)[O-])c1` [DNCB], in data set [1] (THP-1 cells, 24 h), the “CV75 (concentration affording 75% cell viability), 1 × CV75” value was determined as 3.0 µg/mL. Further, in data set [2], the “EC200 for CD54 (lowest concentration inducing % RFI of 200)” value is 1.5 µg/mL and the “RFI for CD54” value worked out at 450%. In data set [3], the “EC150 for CD86 (lowest concentration inducing % RFI of 150)” value is 1.4 µg/mL and the “RFI for CD86” value is recorded as 326%.
On to `CCCCCCNc1ccc(Nc2ccc(N)cc2)cc1OCCCCCC` [PPD7, reference compound], for which the solubility (commonly how much of the substance goes into solution per volume) at 24 h in [4] (setting [10]) came out at 5 µg/mL (≈ 13 µM).
Turning to `Nc1ccc(Nc2ccc(Nc3ccc(Nc4ccc(N)cc4)cc3)cc2)cc1` [PPD8, reference compound], the “Water Solubility” value in data set [4] (setting [11]) is “Insoluble”.
On the same count and under the same terms, the result for `Cc1ccc(CNc2ccc(Nc3ccc(N)cc3)cc2)cc1` [PPD9, reference compound] reads “Insoluble”; that for `Cc1ccc(CNc2ccc(Nc3ccc(Nc4ccc(N)cc4)cc3)cc2)cc1` [PPD10, reference compound], “Insoluble”.
Take `Nc1ccc(CNc2ccc(Nc3ccc(NCc4ccc([N+](=O)[O-])cc4)cc3)cc2)cc1` [PPD11, reference compound]: in [4] (setting [11]), the “Water Solubility” value is on record as “Insoluble”.
Still for that read-out and setting: under `COc1ccc(CNc2ccc(Nc3ccc(NCc4ccc(O)cc4)cc3)cc2)cc1` [PPD12, reference compound] stands “Insoluble”; under `Cc1ccc(CNc2ccc(Nc3ccc(NCc4ccc(C)cc4)cc3)cc2)cc1` [PPD13, reference compound], “Insoluble”.
On to `Oc1ccc(CNc2ccc(Nc3ccc(NCc4ccc(O)cc4)cc3)cc2)cc1` [PPD14, reference compound], for which, in data set [4] (setting [11]), the “Water Solubility” value is recorded as “Insoluble”.
On to `CCCCCCOC(=O)c1cc(N)ccc1N` [PPD15, reference compound], for which the solubility at 24 h in data set [4] (setting [10]) was 10 µg/mL (≈ 42.3 µM).
`CCCCCCNc1ccc(N)cc1OCCCCCC` [PPD16, reference compound]: the “Water Solubility” value in [4] (setting [11]) was “Insoluble”.
In turn, `Nc1ccc(Nc2ccc(N)cc2)cc1` [PPD 1, reference compound] showed a solubility at 24 h in data set [4] (setting [10]) of 500 µg/mL (≈ 2510 µM).
Still for that read-out and setting: the result for `Nc1ccc(Nc2ccc(Nc3ccc(N)cc3)cc2)cc1` [PPD 2, reference compound] reads 100 µg/mL (≈ 344 µM); that for `CCCCC(CC)COc1cc(N)ccc1N` (stereo not drawn) [PPD 3, reference compound], 80 µg/mL (≈ 338 µM).
The same measure, in the same setting: under `CCCCCCOc1cc(N)ccc1N` [PPD 4, reference compound] stands 80 µg/mL (≈ 384 µM).
As to `CCCCCCOc1cc(Nc2ccc(N)cc2)ccc1N` [PPD 5, reference compound], in data set [4] (setting [11]), the “Water Solubility” value was “Insoluble”.
In the case of `CCCCCCOC(=O)c1cc(Nc2ccc(N)cc2)ccc1N` [PPD 6, reference compound], the solubility at 24 h in data set [4] (setting [10]) is 1 µg/mL (≈ 3.05 µM).
In turn, `Nc1ccc(N)cc1` [PPD, para-phenylenediamine] displayed a solubility at 24 h in data set [4] of 40000 µg/mL (≈ 370000 µM). Moreover, the “solubility in per cent” value in data set [4] (water) turned out to be 4%. Besides, the “CV75 (concentration affording 75% cell viability), 1 × CV75” value in [1] (THP-1 cells, 24 h) was 65.4 µg/mL. For the same compound, in [2], the “EC200 for CD54 (lowest concentration inducing % RFI of 200)” value amounted to 35.0 µg/mL and the “RFI for CD54” value amounted to 270%. In data set [3], the “EC150 for CD86 (lowest concentration inducing % RFI of 150)” value turned out to be 39.4 µg/mL and the “RFI for CD86” value turned out to be 210%. For the same compound, the “CD54 and CD86 marker expression against OECD cut-off” value (“CD54 and CD86 marker expression” below) in data set [5] is “above the recommended threshold”. Moreover, the “marker induction, times lower than DNCB” value in data set [5] (human, 24 h) was 1.6. Besides, the IC50 – broadly, the concentration needed to halve the response being measured – in data set [6] is 23.4 µM. In addition, the “Cumulative amount at 8th hour” value in data set [7] (8 h) is reported as 5.4 μg/cm^2. In data set [7], the “Permeated through skin into receptor” value is recorded as 0.038 % of applied compound dose, the “Recovered in donor compartment” value is given as 83 % of applied compound dose, the Recovered in skin is reported as 4.3 % of applied compound dose and the “Recovered in skin outside diffusion area” value is recorded as 0.0050 % of applied compound dose. In addition, in [7], the “Recovered in skin swabs” value is 0.82 % of applied compound dose; the “Recovered on parafilm and in washes” value is 2.19 % of applied compound dose; the “Total recovery (mean percentage parent compound recovery)” value is on record as 93 ± 0.52%. Further, the “release of IL-8” value in data set [8] is given as “higher concentrations”. Further, the “release of IL-1α” value in [9] was “higher concentrations”.
In [4], `Cc1cc(N)ccc1N` [PTD, 2-methylbenzene-1,4-diamine] came in with a solubility at 24 h of 2500 µg/mL (≈ 20500 µM). Moreover, in data set [1] (human), the “CV75 (concentration affording 75% cell viability), 1 × CV75” value turned out to be 43.4 µg/mL. Further, in data set [2], the “EC200 for CD54 (lowest concentration inducing % RFI of 200)” value is 35.35 µg/mL. Besides, the “EC150 for CD86 (lowest concentration inducing % RFI of 150)” value in [3] stood at 34.3 µg/mL. In addition, the “CD54 and CD86 marker expression” value in data set [5] was “above the recommended threshold”. For the same compound, the IC50 in [6] was 73.1 µM. In data set [7], the “Recovered in donor compartment” value was 95 % of applied compound dose, the Recovered in skin was 2.1 % of applied compound dose, the “Recovered in skin outside diffusion area” value is on record as 0.0077 % of applied compound dose and the “Recovered in skin swabs” value was 0.48 % of applied compound dose. Besides, in data set [7], the “Recovered on parafilm and in washes” value was 0.68 % of applied compound dose; the “Total recovery (mean percentage parent compound recovery)” value was 99 ± 0.33%. In addition, the “release of IL-8” value in data set [8] is on record as “higher concentrations”. The “release of IL-1α” value in data set [9] is recorded as “higher concentrations”.
With `CCCCCCCCCCCCOS(=O)(=O)[O-].[Na+]` [SLS, reference compound], the “CV75 (concentration affording 75% cell viability), 1 × CV75” value in data set [1] (THP-1 cells, 24 h) was found to be 56.0 µg/mL. In addition, the “CD54 and CD86 marker expression” value in data set [5] is given as “did not express markers”.
